Test results as given in patent publication US3953442A (priority 1972, dated 1976).
Where two headings read alike, the source gives them in different places.

What was measured:
central nervous system = assay: animal or person; assay type: in vivo; conditions: Mus musculus, read-out: Spontaneous pattern of activity (table head: LD50 in mg/kg)
visceral pain = assay: Analgesic effect, acetic acid induced visceral pain in the mouse (Koster and Anderson test); assay type: in vivo; conditions: oral, 30 min before acetic acid injection, 50% effective dose
Procedure: The compounds (I) are analgesic agents.
A visceral pain is induced in the mouse by intraperitonal injection of a dilute solution of acetic acid (Koster and Anderson test).
The animals, which are starved on the day before the experiment and separated into random batches of 5, are treated with the products under test thirty minutes before injection of the irritant. Treatment was always performed orally.
After the acetic acid solution is injected the animals show symptoms of pain (stretching of the abdomen with extension of the back feet) which are counted during two spells of 5 minutes for each lot: from the fifth to the tenth minute and from the fifteenth to the twentieth minute respectively after the acid is injected
The ED50 value is expressed in mg kg bodyweight

[1] = Acute toxicity (LD50) in the mouse; conditions: in vivo
Procedure: The compounds of the present invention are not very toxic. By way of example, with the mouse, the dose which causes the death of 50 % of the animals or (LD50) is about 400 mg/kg bodyweight by oral and sub-cutaneous administration in the case of 5862.

SMILES	ED50 (central nervous system; ip) [mg/kg]	ED50 (visceral pain) [mg/kg]	further results
CC(Cc1cn(-c2ccccc2)c2ccc(F)cc12)N(C)C (centres unmarked) [compound 6265]	20		
CC(Cc1cn(-c2ccc(Cl)cc2)c2ccc(F)cc12)N(C)C (centres unmarked) [compound 6264]	20		
CC(N)Cc1cn(-c2ccc(F)cc2)c2ccccc12 (centres unmarked) [compound 6254]	80		
CC(Cc1cn(-c2ccccc2Cl)c2ccccc12)N1CCCC1 (centres unmarked) [compound 5984]	0.25		ED50 (central nervous system; po): 10 mg/kg
CC(Cc1cn(-c2ccc(F)cc2)c2ccc(F)cc12)N1CCCC1 (centres unmarked) [compound 6250]	0.8		ED50 (central nervous system; po): 3.12 mg/kg
CNC(C)Cc1cn(-c2ccc(F)cc2)c2ccccc12 (centres unmarked) [compound 5863]	2	6.25	
CNC(C)Cc1cn(-c2ccccc2)c2ccccc12 (centres unmarked) [compound 5479]	2.5		ED50 (central nervous system; po): 25 mg/kg
CC(Cc1cn(-c2ccccc2)c2ccc(F)cc12)N1CCCC1 (centres unmarked) [compound 6116]	0.25		LD50 ([1]; sc, sub-cutaneous): > 1000 mg/kg
CC(Cc1cn(-c2ccc(F)cc2)c2ccccc12)N(C)C (centres unmarked) [compound 5864]	2	3.12	
CNC(C)Cc1cn(-c2ccccc2Cl)c2ccccc12 (centres unmarked) [compound 6051]	5	50	
CC(Cc1cn(-c2ccccc2)c2ccccc12)N1CCOCC1 (centres unmarked) [compound 5481]	2.5	12.5	
CC(Cc1cn(-c2ccc(F)cc2)c2ccc(Cl)cc12)N(C)C (centres unmarked) [compound 6268]	6.25		
COc1ccc(-n2cc(CC(C)N3CCOCC3)c3ccccc32)cc1 (centres unmarked) [compound 5777]	25		
CC(Cc1cn(-c2ccccc2)c2ccccc12)N1CCCCC1 (centres unmarked) [compound 5478]	12.5	12.5	
CC(Cc1cn(-c2ccc(Cl)cc2)c2ccccc12)N(C)C (centres unmarked) [compound 5860]	5	25	
CNC(C)Cc1cn(-c2ccc(N)cc2)c2ccccc12 (centres unmarked) [compound 5935]	2.5		
CNC(C)Cc1cn(-c2ccc(OC)cc2)c2ccccc12 (centres unmarked) [compound 5772]	25		
CNC(C)Cc1cn(-c2ccccn2)c2ccccc12 (centres unmarked) [compound 6104]	25		
CC(Cc1cn(-c2ccccc2Cl)c2ccccc12)N(C)C (centres unmarked) [compound 5987]	6	12.5	ED50 (central nervous system; po): 6.25 mg/kg
CC(Cc1cn(-c2ccccc2)c2ccccc12)N(C)C (centres unmarked) [compound 5483]	5	12.5	ED50 (central nervous system; po): 25 mg/kg

SMILES	ED50 (central nervous system; ip) [mg/kg]	ED50 (visceral pain) [mg/kg]	further results
CC(Cc1cn(-c2ccccn2)c2ccccc12)N1CCCC1 (centres unmarked) [compound 6102]	12.5		
CC(Cc1cn(-c2ccc(F)cc2)c2ccc(Cl)cc12)N1CCCC1 (centres unmarked) [compound 6112, 5-chloro-1-(4-fluorophenyl)-3-(2-pyrrolidinopropyl)indole]	0.4	0.75	LD50 ([1]; oral): > 800 mg/kg; LD50 ([1]; sc, sub-cutaneous): 400 to 800 mg/kg
COc1ccc(-n2cc(CC(C)N3CCCCC3)c3ccccc32)cc1 (centres unmarked) [compound 5776]	5		ED50 (central nervous system; po): 35 mg/kg
CC(Cc1cn(-c2ccc(F)cc2)c2ccc(F)cc12)N(C)C (centres unmarked) [compound 6269]	6.25	6.25	
COc1ccc2c(c1)c(CC(C)N1CCCC1)cn2-c1ccccc1 (centres unmarked) [compound 6066]	10		
COc1ccc(-n2cc(CC(C)N(C)C)c3ccccc32)cc1 (centres unmarked) [compound 5773]	1.25	12.5	ED50 (central nervous system; po): 40 mg/kg
COc1ccc2c(c1)c(CC(C)N(C)C)cn2-c1ccccc1 (centres unmarked) [compound 6271]	12.5		
COc1ccc(-n2cc(CC(C)N3CCCC3)c3ccccc32)cc1 (centres unmarked) [compound 5775]	1	25	
COc1ccc2c(c1)c(CC(C)N1CCCC1)cn2-c1ccc(F)cc1 (centres unmarked) [compound 6270]	3.12		
CC(Cc1cn(-c2ccc(Cl)cc2)c2ccc(F)cc12)N1CCCC1 (centres unmarked) [compound 6251]	9	12.5	ED50 (central nervous system; po): 25 mg/kg
CC(Cc1cn(-c2ccccn2)c2ccccc12)N(C)C (centres unmarked) [compound 6099]	50		
CC(Cc1cn(-c2ccccc2F)c2ccccc12)N1CCCC1 (centres unmarked) [compound 5988]	5	12.5	
CC(Cc1cn(-c2ccc(F)cc2)c2ccccc12)N1CCCC1.Cl (centres unmarked) [compound 5862, 3-(2-pyrrolidinopropyl)-1-(4-fluorophenyl)indole hydrochloride]	0.4	3.12	LD50 ([1]; oral): ~400 mg/kg; LD50 ([1]; sc, sub-cutaneous): ~400 mg/kg
CNC(C)Cc1cn(-c2ccccc2F)c2ccccc12 (centres unmarked) [compound 6050]	12.5		
CC(Cc1cn(-c2cccnc2)c2ccccc12)N(C)C (centres unmarked) [compound 6097]	10		
CC(Cc1cn(-c2ccccc2)c2ccccc12)N1CCCC1 (centres unmarked) [compound 5480]	2.5		ED50 (central nervous system; po): 12.5 mg/kg
COc1ccc(-n2cc(CC(C)NC(C)C)c3ccccc32)cc1 (centres unmarked) [compound 5774, 1-(4-methoxyphenyl)-3-(2-isopropylaminopropyl)indole]	12.5		
CC(Cc1cn(-c2ccc(Cl)cc2)c2ccccc12)N1CCCC1 (centres unmarked) [compound 5861]		25	
CNC(C)Cc1cn(-c2ccc(Cl)cc2)c2ccccc12 (centres unmarked) [compound 5859]	5		
